{
  "source": "patent US20180051284A1",
  "about": "“INHIBITORS OF MIR-17-92 CLUSTER FOR ANTI-TUMOR ACTIVITY IN MULTIPLE MYELOMA AND OTHER MALIGNANCIES” (priority 2014, published 2018)",
  "key": {"MM cell lines": {"system": "MM cell lines", "assay": "CCK-8 cell growth analysis after gymnotic exposure", "format": "cell-based, Human", "conditions": "six days gymnotic exposure, 100 nM to 20 μM; ten MM cell lines; units printed inside the value (nM lower, μM upper); read-out: IC50 values by CCK-8 assay, range over MM cell lines", "experimental": "(§1) Cells were seeded at low plating density in order to reach confluence on the final day of the experiments (day 6). Cell number at plating ranged from 0.5 to 2.5×10^3 in 96-well plates, from 2.5 to 10×10^3 in 12-well plates and from 1 to 3×10^4 in 6-well plates.\nThe LNA/DNA Gapmers were used at concentrations ranging from 0.1 to 20 μM.\n(§2) Cells were seeded in 100 μL (suspension cell lines) or 50 μL (adherent cell lines) of culture medium at a density ranging from 0,5 to 2,5×10^3 cells per well. Survival was evaluated by both Cell Counting Kit-8 colorimetric assay (CCK-8, Dojindo Molecular Technologies, Japan) and CellTiter-Glo Luminescent Cell Viability Assay (Promega Madison, Wis., USA). Assays were performed according to the manufacturer's instructions. The optical density (OD) was evaluated at wave length of 450 nm. Both OD and luminescence were recorded with the GloMax-multi detection system (Promega, Madison, Wis., USA)."}, "[1]": {"system": "Capan1, MCF7, MDA231, LXF-289, A-549, NCI-H82, 5637, BCMW.1 and MPM-209 cells", "assay": "CCK-8 proliferation of non-myeloma cancer cell lines after gymnotic exposure", "format": "cell-based, Human", "conditions": "6 days gymnotic exposure, 0-2,5-5-10 μM", "experimental": "as §1, §2\nSpecifically, we gymnotically exposed for 6 days to 0-2,5-5-10 μM of gapmer_06, the following cell lines: Capan1 pancreatic cancer cells, MCF7 and MDA231 breast cancer cells, LXF-289, A-549 and NCI-H82 lung cancer cells, 5637 bladder cancer cells, BCMW.1 Waldenstrom Macroglobulinemia cells and MPM-209 mesothelioma cells."}, "AMO1 xenografts": {"system": "AMO1 xenografts", "assay": "In vivo tumor growth of AMO1 xenografts (IVIS)", "design": "species or system mice", "conditions": "I.P. 2 mg/kg at day 1-4-8-15-22", "text": "Male CB-17 severe combined immunodeficient (SCID) mice (6- to 8-weeks old; Harlan Laboratories, Inc., Indianapolis) were housed and monitored in our Animal Research Facility. All experimental procedures and protocols had been approved by the Institutional Ethical Committee (Magna Graecia University) and conducted according to protocols approved by the National Directorate of Veterinary Services (Italy). In accordance with institutional guidelines, mice were sacrificed when tumors reached 2 cm in diameter or in the event of paralysis or major compromise, to prevent unnecessary suffering. Animal experimental procedures have been performed as in previous reports (Di Martino et al, CCR 2012; Di Martino el al. Oncotarget 2013, Di Martino et al PlosOne 2014). […] Mice were also inoculated with 5×10^6 luciferase gene-marked U266, AMO-1, AMO-1/abzb, treatments were performed intraperitoneally (i.p.), and tumor volume were measured by IVIS Lumina II.\nIn vivo anti-MM activity of LNA gapmer_06 was next evaluated in NOD/SCID mice bearing subcutaneous AMO1 xenografts. […] Tumors volume were measured using IVIS LUMINA II Imaging We next evaluate the in vivo activity in Bortezomib-refractory model of human MM. […] Tumors volume were measured using IVIS LUMINA II Imaging System."}, "[2]": {"system": "RPMI-8226, KMS-12-BM and NCI-H929 cells", "assay": "Cell viability by flow cytometry of 7-AAD stained cells, gapmer versus single miRNA inhibitors", "format": "cell-based, Human", "conditions": "transfection with 25 nM", "experimental": "Commercial miRNA inhibitors for miR-17a, miR-18a, miR-19a, miR-19b, miR-20a and miR-92a were purchased from Ambion (Applied Biosystems, Calif., U.S.).\n(§3) 3×10^5 cells were transfected using Neon Transfection System (Invitrogen, Calif.,U.S.), (2 pulses at 1150, 30ms). The transfection efficiency evaluated by flow-cytometric analysis relative to a FAM dye—labeled anti-miR—negative control reached 85% to 90%.\n(§4) 7-aminoactinomycin was used to evaluate cell viability. The staining was performed according to manufacturer's instructions.\nTo this aim, we transfected three different MM cell lines with 25 nM of either gapmer_06 or miRNA inhibitors from Ambion or RNase free water as control."}, "NCI-H929 cells": {"system": "NCI-H929 cells", "assay": "Flow cytometry of 7-AAD stained cells after transfection", "format": "cell-based, Human", "conditions": "transfection 25 nM, as compared to RNase-free water", "experimental": "as §3, §4"}, "INA-6 cells": {"system": "INA-6 cells", "assay": "INA-6 SCID-hu model, serum shuIL-6R", "format": "in vivo, mice", "conditions": "I.P. 2 mg/kg at day 1-4-8-15-22; compared to controls", "experimental": "The SCID-hu model was performed implanting human fetal long bone grafts sc into SCID mice (SCID-hu). Four weeks following bone implantation, 2.5×10^6 INA-6 multiple myeloma cells were injected directly into the human bone implant. Because INA-6 cells release soluble human IL-6 receptor (shuIL-6R), we used this marker to monitor tumor growth in SCID-hu mice.\nMouse sera were serially monitored for shulL-6R levels by ELISA (Quantikine […]; R&D Systems). Mice developed detectable serum shuIL-6R ˜4 weeks following INA-6 cell injection and then were […]. Three days after the last injection, blood samples were collected and analyzed (R&D Systems).\nThe in vivo activity of gapmer_06 was also evaluate in a orthotopic model of human MM using U266 cells, to explore the efficacy in relation to the microenvironment. Orthotopic murine model was performed by the use of NOD/SCID mice intravenously injected with luciferase gene-marked U266 cells. Tumor growth was monitored using IVIS LUMINA II Imaging System. […] Engraftment was determined by sacrificing mice after 10 weeks and analyzing bone marrow for luciferase gene-marked U266 cells. […] Mice were treated I.P. with gapmer_06 at concentration of 2 mg/kg at day 1-4-8-15-22, and serum shulL-6R levels were serially determined as a marker of tumor growth."}},
  "note": "l = locked nucleic acid (LNA); d = 2'-deoxy (DNA)",
  "data": [
    {"substance": "gapmer_06: LNA/DNA gapmer, SEQ ID 4 (14 mer): +T*+A*+C*T*T*G*C*T*T*G*G*+C*+T*+T; + LNA, * phosphorothioate (antisense TACTTGCTTGGCTT; sugars from the 5' end l3 d8 l3, all phosphorothioate, methylation of C not given here)", "values": [
      {"measurement": "IC50", "setting": "MM cell lines", "value": "500 to 8000", "unit": "nM"},
      {"measurement": "proliferation (CCK-8 cell growth analysis)", "setting": "[1]", "value": "impair proliferation of all cell lines"},
      {"measurement": "tumor-growth inhibition relative to Bortezomib 1 mg/kg", "setting": "AMO1 xenografts", "value": "almost comparable to Bortezomib effect"},
      {"measurement": "tumor growth (IVIS tumor volume)", "setting": "AMO1 xenografts; vs NaCl control", "value": "significant tumor-growth inhibition"},
      {"measurement": "biological effect on cell viability (flow cytometry, 7-AAD) compared with single miRNA inhibitors", "setting": "[2]", "value": "strongest biological effects"},
      {"measurement": "reduction of live cells (7-AAD)", "setting": "NCI-H929 cells", "value": 20, "unit": "%"},
      {"measurement": "tumor growth (serum shuIL-6R levels)", "setting": "INA-6 cells", "value": "significant tumor-growth inhibition"}
    ]}
  ]
}
